Assay results from article PMC3216237 (Environmental science & technology, 2011).

Key:
rat liver microsomes = assay type: in vitro ADME; details: for Enantiomeric fraction (EF) of OH-PCB metabolite: column not specified, microsomal incubation 50 μM PCB, 30 min
Ryanodine receptor (RyR) = details: enantiospecific, only this atropisomer active; cited from earlier work
[1] = liver of rats treated with Aroclor 1254; cited from earlier work

SMILES | Enantiomeric fraction (EF) of OH-PCB metabolite (rat liver microsomes) | other results
Oc1cc(Cl)c(Cl)c(-c2ccc(Cl)cc2Cl)c1Cl [5–91] | 0.54 | 
Oc1cc(Cl)c(Cl)c(-c2cc(Cl)ccc2Cl)c1Cl [5–95] | approximately 0.33 | 
Oc1cc(Cl)c(Cl)c(-c2cc(Cl)c(Cl)cc2Cl)c1Cl [5–149] | 0.65 | 
Oc1cc(Cl)c(Cl)c(-c2ccc(Cl)c(Cl)c2Cl)c1Cl [5′-132] | 0.31 | Enantiomeric fraction, CB column (rat liver microsomes; Cyclosil-B column, analysis conducted at 170 °C, metabolite analysed as MeO-PCB): 0.31 ^a, ^#
Clc1ccc(Cl)c(-c2c(Cl)ccc(Cl)c2Cl)c1Cl [(-)-PCB 136, 2,2′,3,3′,6,6′-hexachlorobiphenyl] |  | Sensitization of RyRs (Ryanodine receptor (RyR)): active
Clc1ccc(Cl)c(-c2c(Cl)ccc(Cl)c2Cl)c1 [PCB 95] |  | Enantiomeric fraction (EF) in liver [1]: 0.63
Clc1cc(Cl)c(-c2c(Cl)ccc(Cl)c2Cl)cc1Cl [PCB 149] |  | Enantiomeric fraction (EF) in liver [1]: 0.45
